{"source": "patent US20030049317A1", "about": "“Method and composition for reducing the danger and preventing the abuse of controlled release pharmaceutical formulations” (priority 2001, published 2003)", "key": {"[1]": {"tested_on": "morphine-like opioid agonist effects", "conditions": "cited from earlier work; for action of the naloxone amount in Talwin Nx: naloxone hydrochloride equivalent to 0.5 mg base"}, "[2]": {"assay_type": "in vivo", "conditions": "in comparison to a 15 mg dose of hydrocodone"}}, "note": "Where two headings read alike, the source gives them in different places.", "data": [{"smiles": "C=CCN1CC[C@]23c4c5ccc(O)c4O[C@H]2C(=O)CC[C@@]3(O)[C@H]1C5", "note": "[naloxone]", "values": [{"measurement": "onset of effects", "setting": "[1]; after intravenous administration", "result": "almost immediately"}, {"measurement": "action of the naloxone amount in Talwin Nx", "setting": "[1]; given by injection", "result": "profound antagonistic action to narcotic analgesics"}, {"measurement": "action of the naloxone amount in Talwin Nx", "setting": "[1]; taken orally", "result": "no action when taken orally"}, {"measurement": "block of heroin effects", "setting": "[1]; one mg intravenously versus 25 mg of heroin", "result": "completely block the effects of 25 mg of heroin"}, {"measurement": "effect on morphine-like opioid agonist effects", "setting": "[1]; small doses (0.4-0.8 mg) intramuscularly or intravenously in humans", "result": "prevents or promptly reverses the effects of morphine-like opioid agonist"}]}, {"smiles": "COc1ccc2c3c1O[C@H]1C(=O)CC[C@H]4[C@@H](C2)N(C)CC[C@]314", "note": "[Hydrocodone]", "values": [{"measurement": "Equianalgesic dose, Calculated Dose", "setting": "[2]", "result": 15.0, "unit": "mg"}]}]}
